Data published in patent publication US20090317376A1, “Compositions And Methods For Lipo Modeling” (Georgetown University MEDICAL SCHOOL, priority 2005, published 2009).
Entries after “also recorded” stand apart in the source; their conditions may differ.

Tested on: abdominal fat pad
Experiment: Local NPY or Y2R antagonist treatment of the abdominal fat pad (ob/ob, WT, eNOS−/− mice)
Assay type: in vivo
Conditions: for fat in the region of the pellet (MRI thresholded for fat): compared to Placebo pellets, FIG. 9; for adipocyte number and size, Y2R staining in subcutaneous abdominal fat pad (immunohistochemistry): FIG. 10; for capillary density / density of von Willebrand factor positive microvessels in abdominal fat: Y2R antagonist intra-fat vs vehicle
Protocol: Eight week old ob/ob mice are used to study the growth of adipose tissue when treated with growth factor NPY versus antagonist. Whether the Y2R antagonist causes regression of fat deposits is determined using an antagonist in older 3-6 month old ob/ob mice. […] Fat pads (subcutaneous abdominal, omental, subcutaneous, sternal, and interscapular) are harvested and examined to determine whether there is hyperplasia, hypertrophy, or apoptosis of the fat cells. Whether NPY-mediated angiogenesis is involved in adipose tissue growth is determined. The anti-angiogenic effects and consequences of Y2R antagonist on adipose tissue growth is determined by subcutaneous injections of Y2R antagonist BIIE0246 (0.2 ml, 1 μM, daily/14 days) periabdominally into the abdominal fat pad or subcutaneous implantation of a slow-release pellet containing BIE0246 (10 μg/14 days) followed by an evaluation of the fat deposits by MRI. These fat pads are then harvested, weighed, and stained for endothelial markers and NPYRs. Fat pads are further characterized by RT-PCR, quantitative real-time PCR, and ELISA.
NPY slow-release pellets (1 μg/14 days) are inserted subcutaneously into the abdominal fat pad of ob/ob, C57BL/6 and SV129 WT mice. […] NPY pellets are also inserted into eNOS^−/− -mice. […] Specific peptide Y2R antagonist, BIIE0246, is subcutaneously injected periabdominally (0.2 ml, 1 μM, daily/14 days) or is given in the form of a slow release pellet (10 μg/14 days). […] Changes in visceral fat are visualized by MRI and quantified by volumetric calculations (FIG. 9). Fat pad weight is also measured upon euthanasia of the mice (FIG. 8).
In vivo treatment of murine model of obesity with antagonist: 6-week-old mice from four murine strains: C57BL-6, ob/ob, SV129, and eNOS^−/− are used. The mice are separated into treatment groups to compare the effects of diet, stress, NPY and specific receptor antagonists. The mice are weighed every other day during the course of the treatment. Control groups for the transgenic mice are matched by background strain, age, and gender. WT C57BL/6 mice (a background strain predisposed to weight gain [64]) is fed a “comfort food diet” consisting of lard and sugar and subjected to cold stress (1 hour in a cage with 1 cm of ice and water at the base of the cage). NPY is delivered locally by the implantation of a NPY slow-release pellet ([…]) into the abdominal fat pad. NPY receptor antagonists or antisense ODN is delivered by rotating daily subcutaneous injections (0.2 ml, 1 μM, daily/14 days) in the abdominal region. 20-mer phosphorothioate oligonucleotide antisense, targeted forward from rat Y2-gene transcription initiation codon (5-[…]-3′) (Molecular Research Laboratories, Herndon, Va.) is used. The scrambled antisense sequence contains some modified deoxynucleotides in a random order (5′-[…]-3′).
Tissue sample collection and processing: After treatment, fat pads are harvested from: 1) subcutaneous abdominal, 2) intra-abdominal (omental), 3) inguinal, 4) interscapular. The total central fat (abdominal region only) weight (FW) and FW to percent of body weight (F/B) is measured. The adipose tissue is processed for paraffin embedding and sections, […], are collected on glass slides for immunohistochemistry. 50 mg of tissue is used for quantitative real-time RT-PCR.
Magnetic Resonance Imaging (MRI): A Brukker 7-Tesla small-animal magnetic resonance imager coil is used to visualize and noninvasively quantitate various fat depots. A 3-dimensional (3D) T2-weighted (T2W) imaging protocol optimized for high contrast fat-imaging is implemented. […] Quantification of the total body fat as well as separate specific fat depots is calculated using thresholding and voxel count plugins from NIH image J software. VolumeJ is used to render, in a 3D image, the various fat depots.

[1] = NPY 1 μg/14 day-pellet, both obese and lean mice
[2] = NPY slow-release pellet 1 μg/14 days vs placebo, ob/ob, C57BL/6 and SV129 WT mice
[3] = 8-week old ob/ob mice, s.c. 0.2 ml, 1 μM, daily/14 days or pellet 10 μg/14 days, vs saline/PLC
[4] = BIIE0246 1 μM/day s.c. into the abdominal pads, within 2-weeks

Row | Compound | subcutaneous abdominal adipose tissue volume (MRI) [1] | subcutaneous abdominal adipose tissue weight (g) [1] | WAT cellularity, proliferation of small adipocytes (NPY in WT mice) | FW to body weight ratio (F/B) (NPY pellet, eNOS−/− mice) | total central fat weight (FW) / fat pad weight (NPY pellet, eNOS−/− mice) | FW to body weight ratio (F/B) [2] | total central fat weight (FW) / fat pad weight [2] | fat in the region of the pellet (MRI thresholded for fat) | adipogenic activity in eNOS−/− mice (mice deficient in endothelial nitric oxide synthase) | visceral fat (ob/ob mice, NPY, FIG. 8) | adipocyte number and size, Y2R staining in subcutaneous abdominal fat pad (immunohistochemistry) (ob/ob mice) | decrease in F/B [3] | decrease in FW [3] | decrease of abdominal pad volume [4] | decrease of abdominal pad weight [4] | capillary density / density of von Willebrand factor positive microvessels in abdominal fat (listed as Y2R antagonist) | capillary density / density of von Willebrand factor positive microvessels in abdominal fat (listed as Y2R-antagonist) | TUNEL-positive staining of endothelial cells and adipocytes (intra-fat injections of Y2R antagonist)
1 | neuropeptide Y [NPY] | significantly increased | significantly increased | mimicked | no significant weight gain | no significant weight gain | significant increase | significant increase; also recorded: Increase of fat pad weight | increased fat | resistant to NPY's adipogenic activity | increases visceral fat | greater number of smaller adipocytes |  |  |  |  |  |  | 
2 | N=C(N)NCCC[C@H](NC(=O)CC1(CC(=O)N2CCN(C3c4ccccc4NC(=O)c4ccccc43)CC2)CCCC1)C(=O)NCCn1c(=O)n(-c2ccccc2)n(-c2ccccc2)c1=O (some centres unmarked) [BIIE0246] |  |  |  |  |  |  |  | decreased fat |  |  | fewer but larger adipocytes and fewer Y2Rs | 40% | 40% | 50% | 50% | decreased the density of von Willebrand-positive microvessels | significant decrease in capillary density | increasing TUNEL-positive staining
